Values quoted from earlier work in publication PMC8453901, “GLPG1205, a GPR84 Modulator: Safety, Pharmacokinetics, and Pharmacodynamics in Healthy Subjects” (Clinical Pharmacology in Drug Development, 2021).

Tested on: histological lesions in the lung
Set-up: method as in PMID 29454750
Details: bleomycin-induced mouse model of pulmonary fibrosis, compared with vehicle; cited from earlier work

Question: For `CCCCCc1cccc(CC(=O)O)c1` [PBI‐4050], which “reduction of histological lesions in the lung” value is on record?
Answer: 47%
